Data from patent US20040038222A1 (priority 2001, published 2004).

Assays:
[1] = system: C57BL/6J and C3H/HeJ primary bone marrow-derived macrophages
KiflC in NIH3T3 cells = conditions: cited from earlier work
Sequence of KiflC in NIH3T3 cells (O35071 whole entry): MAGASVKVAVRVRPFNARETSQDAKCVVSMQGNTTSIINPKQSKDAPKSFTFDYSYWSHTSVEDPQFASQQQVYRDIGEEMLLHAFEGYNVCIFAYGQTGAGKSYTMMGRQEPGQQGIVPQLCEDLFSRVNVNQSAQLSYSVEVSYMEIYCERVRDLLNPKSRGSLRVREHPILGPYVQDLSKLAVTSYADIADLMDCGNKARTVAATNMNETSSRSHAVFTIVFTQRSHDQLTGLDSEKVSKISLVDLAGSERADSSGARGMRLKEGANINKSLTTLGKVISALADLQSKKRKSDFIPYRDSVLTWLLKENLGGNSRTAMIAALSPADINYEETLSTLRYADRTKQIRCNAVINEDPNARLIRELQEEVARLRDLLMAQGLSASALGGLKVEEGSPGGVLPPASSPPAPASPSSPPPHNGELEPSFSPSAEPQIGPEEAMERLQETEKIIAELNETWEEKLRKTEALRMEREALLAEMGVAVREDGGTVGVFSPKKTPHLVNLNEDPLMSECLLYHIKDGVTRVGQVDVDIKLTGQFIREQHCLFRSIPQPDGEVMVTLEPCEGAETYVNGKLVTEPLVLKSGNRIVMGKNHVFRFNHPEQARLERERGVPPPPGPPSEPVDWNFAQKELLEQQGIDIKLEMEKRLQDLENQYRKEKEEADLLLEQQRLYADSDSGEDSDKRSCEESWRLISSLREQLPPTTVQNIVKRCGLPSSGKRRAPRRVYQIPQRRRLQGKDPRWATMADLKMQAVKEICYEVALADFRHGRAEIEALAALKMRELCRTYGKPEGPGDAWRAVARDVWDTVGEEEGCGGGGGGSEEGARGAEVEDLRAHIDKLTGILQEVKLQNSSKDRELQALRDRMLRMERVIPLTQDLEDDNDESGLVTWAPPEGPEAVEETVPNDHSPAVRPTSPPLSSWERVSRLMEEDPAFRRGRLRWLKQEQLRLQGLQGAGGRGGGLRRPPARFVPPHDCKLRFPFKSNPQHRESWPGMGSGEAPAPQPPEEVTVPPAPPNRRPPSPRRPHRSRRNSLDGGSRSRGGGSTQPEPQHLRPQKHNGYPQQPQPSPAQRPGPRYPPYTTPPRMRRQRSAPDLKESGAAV

In the case of brefeldin A [BFA], the “Susceptibility of susceptible macrophages to intoxication with LF in the presence of BFA” value [1] is listed as “unaltered” and the “Relocalization of KiflC” value (KiflC in NIH3T3 cells) is listed as “dramatic relocalization of KiflC to the Endoplasmic Reticulum”.
